# Test results as given in patent publication US20260158152A1, “SPLICING MODULATOR ANTIBODY-DRUG CONJUGATES AND METHODS OF USE” (EISAI R&D MANAGEMENT CO., LTD., priority 2018, published 2026).
# Like-named read-outs stand apart in the source and are kept apart here.
# What was measured:
# [1] = test system: FBXW5 (mature mRNA transcript); experiment: In vivo PD RT-qPCR in NCI-N87 tumors, FBXW5; parameters: species or system CB17-SCID mice; details: 10 mg/kg IV single dose, NCI-N87 xenograft, versus vehicle
# Method: (§1) Single cell suspension of 5 million cells per 0.1 mL (50% ATCC-modification-RPMI-1640-medium, Cat. No. A10491-01 (Thermo-Fisher Scientific); and 50% Corning Matrigel, Cat No. 356254 (VWR Scientific)) was injected subcutaneously on the right lateral flank with a syringe with a 25 Ga needle. Mice were randomized on day 0 at a mean tumor volume of 180-183 mm^3, n=8 per group for efficacy and n=4 per group for pharmacodynamics (PD). On day 1, test articles were administered (10 mg/kg) at a volume of 5 mL/kg intravenously every 7 days for 2 cycles for efficacy; a single course of treatment was used for PD assessment. Animals in the PD cohorts were euthanized at 24, 48, 72, and/or 96 hours post-dosing of a single dose, depending on the test article.
# (§2) RNA was purified from tumor samples using MagMAX-96 for Microarrays kit and MagMAX Express-96 Deep Well Magnetic Particle Processor (ThermoFisher Scientific). Tumor samples (size 50-100 mg) were collected in RNAlater buffer and kept at −80° C. until RNA isolation. Tissue homogenization was performed by adding 2-3 ceramic beads and 1 mL of Tri-reagent into a tube containing tumors, followed by disruption on an Omni Bead Ruptor 24 instrument (Omni International). RNA isolation was done according to the manufacturer's instructions.
# (§3) RNA lysates were isolated and reverse transcribed using TaqMan Fast Virus 1-Step Master Mixt (ThermoFisher Scientific) according to the manufacturer's instructions.
# (§4) Quantitative PCR from cDNA was performed using TaqMan Gene Expression Master Mix (ThermoFisher Scientific) with transcript probes targeting FBXW5 or TAOK1 junctions duplexed with RPLP0 RNA VIC-PL (ThermoFisher Scientific) and quantified using the ΔΔCt method.
# (§5) RT-qPCR of FBXW5 (mature mRNA transcript) and TAOK1 (neojunction transcript) were monitored. Test article or vehicle was given intravenously (IV) at 10 mg/kg. […] Tumors were isolated for RNA extraction and RT-qPCR. *p<0.05 versus vehicle using one-way ANOVA (FIG. 24A and FIG. 24B) or two-way ANOVA (FIG. 24C and FIG. 24D).
# [2] = test system: TAOK1 (neojunction transcript); experiment: In vivo PD RT-qPCR in NCI-N87 tumors, TAOK1; parameters: species or system CB17-SCID mice; details: 10 mg/kg IV single dose, NCI-N87 xenograft, versus vehicle
# Method: as §1, §2, §3, §4, §5
# PC3 cells = experiment: Cell viability, EPHA2-expressing PC3; format: cell-based; details: free payload of the ADC
# Method: (§6) HCC1954 (American Type Culture Collection (ATCC)) breast ductal carcinoma cells were plated at 2000 cells/well in flat bottom 96-well tissue culture plates (Corning) in a total volume of 90 μL tissue culture medium supplemented with 10% fetal bovine serum (ThermoFisher Scientific). Cells were treated with a 3-fold serial dilution of compound from 200 nM to 0.03 nM. Each concentration was tested in triplicate. At the time of treatment, a plate of untreated cells was evaluated using CellTiter-Glo®2.0 Luminescent Cell Viability Assay according to the manufacturer's recommendations (Promega; #G9241). CellTiter-Glo® 2.0 reagent was added to the medium, incubated, and assayed on an EnVision Multilabel Reader (PerkinElmer). Values represent time zero (TO). […] Percentage growth inhibition was calculated as: [(T144−T0)/(C−T0)]×100 for concentrations for which T144>/=T0 or [(T144−T0)/T0]×100 for concentrations for which T144<T0. The dose response curve plots were generated using Prism 7 (Graphpad) and fit using nonlinear regression analysis and the log (inhibitor) versus response—variable slope (four parameters).
# Anti-CD138 ADCs were tested in the CD138-expressing MOLP8 multiple myeloma cell line. Similarly, anti-EPHA2 ADCs were tested in the EPHA2-expressing PC3 prostate cancer cell line.
# [3] = Caco-2 permeability of ADC payload; format: in vitro ADME; details: human, payload; for efflux ratio at 2 h, 10 µM: Caco-2, B−A/A−B
# Method: (§7) Integrity of cell monolayer was confirmed by TEER (transepithelial electrical resistance) and Lucifer yellow. Payloads were spiked in duplicate at 10 µM, separately, on both sides of the cell monolayer. Permeability rates from the apical to basolateral (A−B) direction and the basolateral to apical (B−A) direction were determined by sampling aliquots from both chambers immediately after treatment (t=0) and following incubation for 2 hours. Samples were protein precipitated with organic solvent containing internal standard and analyzed by LC-MS/MS (SCIEX; API 5500). The area ratio responses of payload/internal standard over time in both directions were used to generate permeability (cm/sec) values.
# NCIH1650.1 = experiment: Payload cellular potency, CTGlo-ATS, 72 h, NCIH1650.1; format: cell-based; details: corresponding free payload, cell line #1, 72 h
# Caco-2 cells = experiment: Caco-2 permeability of ADC payload; format: in vitro ADME; details: for Perm. Mean Caco-2 B-A Perm: corresponding free payload
# Method: as §7
# N87 cells = experiment: Cell viability CellTiter-Glo, N87; format: cell-based, human; details: unconjugated payload of the ADC
# Method: as §6
# HCC1954 (ATCC), 2000 cells/well), N87 (ATCC, 4000 cells/well), SKBR3 (ATCC, 3000 cells/well), and MCF7 (ATCC, 1500 cells/well) cell lines were used. Cell viability analysis was performed as described in section 2.3.
# THP1.1 = experiment: Payload cell potency and lethality CellTiter-Glo, THP1; format: cell-based; details: for GI50: Homo sapiens
# Method: Each concentration was tested in triplicate. […] Values represent time zero (TO).
# [4] = THP-1, read-out: Payload cell potency: CT..-ATS GMean GI50 (nM) THP1.1
compound,measurement,setting,value
"CC(=O)N1CCC(n2nnc3c(F)cc(/C=C(\C)[C@H]4OC(=O)C[C@H](O)CC[C@H](C)[C@@H](OC(=O)N5CC[N+](C)(Cc6ccc(NC(=O)[C@H](C)NC(=O)[C@@H](NC(=O)CCCCCN7C(=O)C=CC7=O)C(C)C)cc6)CC5)/C=C/[C@@H]4C)cc32)CC1 [ADL5-D15, 4-((((2S,3S,6R,7S,10R,E)-2-((E)-1-(1-(1-acetylpiperidin-4-yl)-4-fluoro-1H-benzo[d][1,2,3]triazol-6-yl)prop-1-en-2-yl)-10-hydroxy-3,7-dimethyl-12-oxooxacyclododec-4-en-6-yl)oxy)carbonyl)-1-(4-((S)-2-((S)-2-(6-(2,5-dioxo-2,5-dihydro-1H-pyrrol-1-yl)hexanamido)-3-methylbutanamido)propanamido)benzyl)-1-methylpiperazin-1-ium]",change in FBXW5 mature mRNA transcript in tumors,[1],significant depletion of FBXW5
same,change in TAOK1 neojunction transcript in tumors,[2],"showed an increase in TAOK1, but did not reach statistical significance"
CC(=O)N1CCC(n2nnc3c(F)cc(/C=C(\C)[C@H]4OC(=O)C[C@H](O)CC[C@H](C)[C@@H](OC(=O)N5CCN(C)CC5)/C=C/[C@@H]4C)cc32)CC1 [D15],Payload Rmin,PC3 cells,−79.835%
same,"Papp B→A at 2 h, 10 µM","[3]; Caco-2, basolateral to apical, 2 hours, read-out: Permeability Mean Caco-2 B-A Perm (10e−6 cm/s)",28.9 ×10⁻⁶ cm/s
same,"efflux ratio at 2 h, 10 µM",[3],7.84
CC[C@H](O)[C@@H](C)[C@H]1O[C@@H]1C[C@@](C)(O)/C=C/C=C(\C)[C@H]1OC(=O)C[C@H](O)CC[C@@](C)(O)[C@@H](OC(=O)N2CCNCC2)/C=C/[C@@H]1C [D12],CTGlo-ATS GMean LD50 72 h NCIH1650.1,NCIH1650.1,>100 µM
same,Perm. Mean Caco-2 B-A Perm,Caco-2 cells,0.23 10e−6 cm/s
"CC[C@H](O)[C@@H](C)[C@H]1O[C@@H]1C[C@@](C)(O)/C=C/C=C(\C)[C@H]1OC(=O)C[C@H](O)CC[C@@](C)(OC(=O)N2CCNCC2)[C@@H](OC(C)=O)/C=C/[C@@H]1C [D8, (2S,3S,6S,7R,10R,E)-6-acetoxy-10-hydroxy-2-((R,2E,4E)-6-hydroxy-7-((2R,3R)-3-((2R,3S)-3-hydroxypentan-2-yl)oxiran-2-yl)-6-methylhepta-2,4-dien-2-yl)-3,7-dimethyl-12-oxooxacyclododec-4-en-7-yl piperazine-1-carboxylate]",Payload Rmin,PC3 cells,−68.37%
same,CTGlo-ATS GMean LD50 72 h NCIH1650.1,NCIH1650.1,>10 µM
same,Payload Rmin (%),N87 cells,−34.052%
same,Perm. Mean Caco-2 B-A Perm,Caco-2 cells,2.027 10e−6 cm/s
same,"Papp A→B at 2 h, 10 µM","[3]; Caco-2, apical to basolateral, 2 hours, read-out: Permeability Mean Caco-2 A-B Perm (10e−6 cm/s)",0.138 ×10⁻⁶ cm/s
"C/C(=C\c1cc(F)cc(N2CCN(CC(=O)O)CC2)c1)[C@H]1OC(=O)C[C@H](O)CC[C@H](C)[C@@H](OC(=O)N2CCNCC2)/C=C/[C@@H]1C [D33, 2-(4-(3-fluoro-5-((E)-2-((2S,3S,6R,7S,10R,E)-10-hydroxy-3,7-dimethyl-12-oxo-6-((piperazine-1-carbonyl)oxy)oxacyclododec-4-en-2-yl)prop-1-en-1-yl)phenyl)piperazin-1-yl) acetic acid]","efflux ratio at 2 h, 10 µM",[3],4.08
CC[C@H](O)[C@@H](C)[C@H]1O[C@@H]1C[C@@](C)(O)/C=C/C=C(\C)[C@H]1OC(=O)C[C@H](O)CC[C@@](C)(OC(C)=O)[C@@H](OC(=O)N2CCN(C(=O)OCc3ccc(NC(=O)[C@H](CCCNC(N)=O)NC(=O)[C@@H](NC(=O)CCCCCN4C(=O)C=CC4=O)C(C)C)cc3)CC2)/C=C/[C@@H]1C [ADL1-D4],change in FBXW5 mature mRNA transcript in tumors,[1],significant depletion of FBXW5
same,change in TAOK1 neojunction transcript in tumors,[2],significant increases in TAOK1
"CC[C@H](O)[C@@H](C)[C@H]1O[C@@H]1C[C@@](C)(O)/C=C/C=C(\C)[C@H]1OC(=O)C[C@H](O)CC[C@@](C)(OC)[C@@H](OC(=O)N2CCNC(CCC(=O)O)C2)/C=C/[C@@H]1C (stereo partly drawn) [D22, N-ethyl-N-isopropylpropan-3-(4-((((2S,3S,6S,7R,10R,E)-10-hydroxy-2-((R,2E,4E)-6-hydroxy-7-((2R,3R)-3-((2R,3S)-3-hydroxypentan-2-yl)oxiran-2-yl)-6-methylhepta-2,4-dien-2-yl)-7-methoxy-3,7-dimethyl-12-oxooxacyclododec-4-en-6-yl)oxy)carbonyl)piperazin-2-yl)propanoic acid]",CTGlo-ATS Mean MinResponse % THP1.1,THP1.1; payload of the ADC,−78.119%
same,"efflux ratio at 2 h, 10 µM",[3],1.14
"CC[C@H](O)[C@@H](C)C1OC1C[C@@](C)(O)/C=C/C=C(\C)[C@H]1OC(=O)C[C@H](O)CC[C@@](C)(OC(C)=O)[C@@H](OC(=O)N2CCNCC2)/C=C/[C@@H]1C (stereo in doubt) [D4, (2S,3S,6S,7R,10R,E)-7-acetoxy-10-hydroxy-2-((R,2E,4E)-6-hydroxy-7-((2S,3S)-3-((2R,3S)-3-hydroxypentan-2-yl)oxiran-2-yl)-6-methylhepta-2,4-dien-2-yl)-3,7-dimethyl-12-oxooxacyclododec-4-en-6-yl piperazine-1-carboxylate]",GI50,THP1.1; [4],10.9 nM
same,Payload Rmin,PC3 cells,−55.97%
same,Payload Rmin (%),N87 cells,−81.775%
same,Perm. Mean Caco-2 B-A Perm,Caco-2 cells,1.79 10e−6 cm/s
"CC[C@H](O)[C@@H](C)[C@H]1O[C@@H]1C[C@@](C)(O)/C=C/C=C(\C)[C@H]1OC(=O)C[C@H](O)CC[C@@](C)(OC)[C@@H](OC(=O)N2CCN(C)CC2)/C=C/[C@@H]1C [D2, (2S,3S,6S,7R,10R,E)-10-hydroxy-2-((R,2E,4E)-6-hydroxy-7-((2R,3R)-3-((2R,3S)-3-hydroxypentan-2-yl)oxiran-2-yl)-6-methylhepta-2,4-dien-2-yl)-7-methoxy-3,7-dimethyl-12-oxooxacyclododec-4-en-6-yl 4-methylpiperazine-1-carboxylate]",GI50,THP1.1; [4],2.02 nM
same,CTGlo-ATS Mean MinResponse % THP1.1,THP1.1; payload of the ADC,−100.218%
same,payload cell potency as compared to D1,THP1.1; see Table 14,three-fold increase
same,Payload Rmin,PC3 cells,−68.803%
same,Payload Rmin (%),N87 cells,−72.706%
same,payload permeability as compared to D1,Caco-2 cells; see Table 14,three-fold increase
"CC[C@H](O)[C@@H](C)C1OC1C[C@@](C)(O)/C=C/C=C(\C)[C@H]1OC(=O)C[C@H](O)CC[C@@](C)(OC)[C@@H](OC(=O)N2CCN(CCN3C(=O)C=CC3=O)CC2)/C=C/[C@@H]1C (stereo in doubt) [ADL14-D1, (2S,3S,6S,7R,10R,E)-10-hydroxy-2-((R,2E,4E)-6-hydroxy-7-((2S,3S)-3-((2R,3S)-3-hydroxypentan-2-yl)oxiran-2-yl)-6-methylhepta-2,4-dien-2-yl)-7-methoxy-3,7-dimethyl-12-oxooxacyclododec-4-en-6-yl 4-(2-(2,5-dioxo-2,5-dihydro-1H-pyrrol-1-yl)ethyl)piperazine-1-carboxylate]",change in FBXW5 mature mRNA transcript in tumors,[1],did not exhibit statistically significant changes
same,change in TAOK1 neojunction transcript in tumors,[2],did not exhibit statistically significant changes
"CC[C@H](O)[C@@H](C)[C@H]1O[C@@H]1C[C@@](C)(O)/C=C/C=C(\C)[C@H]1OC(=O)C[C@H](O)CC[C@@](C)(O)[C@@H](OC(=O)N2CCN(C3CCCCCC3)CC2)/C=C/[C@@H]1C [D11, E7107]",CTGlo-ATS Mean MinResponse % THP1.1,THP1.1; payload of the ADC,−100.481%
"CC[C@H](O)[C@@H](C)[C@H]1O[C@@H]1C[C@@](C)(O)/C=C/C=C(\C)[C@H]1OC(=O)C[C@H](O)CC[C@@](C)(OC)[C@@H](OC(=O)N(C)CCNC)/C=C/[C@@H]1C [D20, (2S,3S,6S,7R,10R,E)-10-hydroxy-2-((R,2E,4E)-6-hydroxy-7-((2R,3R)-3-((2R,3S)-3-hydroxypentan-2-yl)oxiran-2-yl)-6-methylhepta-2,4-dien-2-yl)-7-methoxy-3,7-dimethyl-12-oxooxacyclododec-4-en-6-yl methyl(2-(methylamino)ethyl)carbamate]","efflux ratio at 2 h, 10 µM",[3],2.38
CC[C@H](O)[C@@H](C)[C@H]1O[C@@H]1C[C@@](C)(O)/C=C/C=C(\C)[C@H]1OC(=O)C[C@H](O)CC[C@@](C)(OC)[C@@H](OC(=O)N2CCNCC2)/C=C/[C@@H]1C (stereo in doubt) [D1],CTGlo-ATS Mean MinResponse % THP1.1,THP1.1; payload of the ADC,−100.815%
same,Payload Rmin,PC3 cells,−71.987%
same,CTGlo-ATS GMean LD50 72 h NCIH1650.1,NCIH1650.1,>10 µM
same,Payload Rmin (%),N87 cells,−40.041%
same,Perm. Mean Caco-2 B-A Perm,Caco-2 cells,2.05 10e−6 cm/s
C/C(=C\c1cc(F)cc(N2CCOCC2)c1)[C@H]1OC(=O)C[C@H](O)CC[C@H](C)[C@@H](OC(=O)N2CCN(C)CC2)/C=C/[C@@H]1C [D17],GI50,"THP1.1; THP-1, payload of the ADC, read-out: Payload cell potency: CT..-ATS GMean GI50 (nM) THP1.1",2.83 nM
"CC[C@H](O)[C@@H](C)[C@H]1O[C@@H]1C[C@H](C)/C=C/C=C(\C)[C@H]1OC(=O)C[C@H](O)CC[C@@](C)(OC)[C@@H](OC(=O)N2CCNCC2)/C=C/[C@@H]1C [D18, (2S,3S,6S,7R,10R,E)-10-hydroxy-2-((S,2E,4E)-7-((2R,3R)-3-((2R,3S)-3-hydroxypentan-2-yl)oxiran-2-yl)-6-methylhepta-2,4-dien-2-yl)-7-methoxy-3,7-dimethyl-12-oxooxacyclododec-4-en-6-yl piperazine-1-carboxylate]",Payload Rmin (%),N87 cells,−92.127%
same,"efflux ratio at 2 h, 10 µM",[3],23
CC[C@H](O)[C@@H](C)[C@H]1O[C@@H]1C[C@@](C)(O)/C=C/C=C(\C)[C@H]1OC(=O)C[C@H](O)CC[C@@](C)(OC)[C@@H](OC(=O)N2CCN(CCCC(=O)O)CC2)/C=C/[C@@H]1C [D25],Payload Rmin (%),N87 cells,40.364%
"COc1cc2cc(c1Cl)N(C)C(=O)C[C@H](OC(=O)[C@H](C)N(C)C(=O)CCS)[C@]1(C)O[C@H]1[C@H](C)[C@@H]1C[C@@](O)(NC(=O)O1)[C@H](OC)/C=C/C=C(\C)C2 [DM1, reference compound]",Payload cell lethality: CT..-ATS GMean LD50 (nM) THP1.1,THP1.1; payload of the ADC,3.287 nM
